From patent publication US8399438B2, “2α-methyl-19-nor-1α-hydroxy-homopregnacalciferol and its uses” (Wisconsin Alumni Research Foundation, priority 2004, dated 2013)

Key:
[1] = target: T1, full-length recombinant rat vitamin D receptor (Rattus norvegicus, UniProt P13053); test: Vitamin D receptor binding, competition with [3H]-1,25(OH)2D3; details: FIG. 1
T1 construct: Full-length recombinant rat receptor was expressed in E. coli; histidine tag (C); made in house; host or cells: E. coli BL21 (DE3) Codon Plus RIL
T1 sequence (P13053 1-423): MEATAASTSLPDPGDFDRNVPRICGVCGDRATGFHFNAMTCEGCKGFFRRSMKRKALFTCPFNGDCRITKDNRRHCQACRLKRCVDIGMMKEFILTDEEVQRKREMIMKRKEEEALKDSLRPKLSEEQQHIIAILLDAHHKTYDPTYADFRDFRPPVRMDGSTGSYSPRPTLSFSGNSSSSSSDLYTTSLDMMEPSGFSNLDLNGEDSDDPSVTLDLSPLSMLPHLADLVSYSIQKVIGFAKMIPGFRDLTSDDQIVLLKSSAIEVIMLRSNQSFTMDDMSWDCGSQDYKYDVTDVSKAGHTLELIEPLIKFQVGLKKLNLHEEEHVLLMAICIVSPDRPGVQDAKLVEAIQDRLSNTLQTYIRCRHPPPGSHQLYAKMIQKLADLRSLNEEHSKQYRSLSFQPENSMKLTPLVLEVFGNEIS
Experimental: Full-length recombinant rat receptor was expressed in E. coli BL21 (DE3) Codon Plus RIL cells and purified to homogeneity using two different column chromatography systems. The first system was a nickel affinity resin that utilizes the C-terminal histidine tag on this protein. The protein that was eluted from this resin was further purified using ion exchange chromatography (S-Sepharose Fast Flow). Aliquots of the purified protein were quick frozen in liquid nitrogen and stored at −80° C. until use. For use in binding assays, the protein was diluted in TEDK50 (50 mM Tris, 1.5 mM EDTA, pH7.4, 5 mM DTT, 150 mM KCl) with 0.1% Chaps detergent. The receptor protein and ligand concentration were optimized such that no more than 20% of the added radiolabeled ligand was bound to the receptor.
Radiolabeled and unlabeled ligands were added to 100 mcl of the diluted protein at a final ethanol concentration of ≦10%, mixed and incubated overnight on ice to reach binding equilibrium. The following day, 100 mcl of hydroxylapatite slurry (50%) was added to each tube and mixed at 10-minute intervals for 30 minutes. The hydroxylapaptite was collected by centrifugation and then washed three times with Tris-EDTA buffer (50 mM Tris, 1.5 mM EDTA, pH 7.4) containing 0.5% Titron X-100. […] Total binding was determined from the tubes containing only radiolabeled ligand.

[2] = tested on: 24-hydroxylase (24Ohase) gene promoter in ROS 17/2.8 (bone) cells; test: In vitro transcription assay (24-hydroxylase promoter luciferase reporter); assay type: cell-based; details: ROS 17/2.8 cells, 16 h, FIG. 3, read-out: EC50, transcriptional activity in bone cells
Experimental: Transcription activity was measured in ROS 17/2.8 (bone) cells that were stably transfected with a 24-hydroxylase (24Ohase) gene promoter upstream of a luciferase reporter gene (Arbour et al., 1998). Cells were given a range of doses. Sixteen hours after dosing the cells were harvested and luciferase activities were measured using a luminometer.
RLU=relative luciferase units.

Sprague-Dawley rats [3] = test: Bone calcium mobilization (serum calcium) in vitamin D-deficient rats; assay type: in vivo, rat; details: for bone calcium mobilization (serum calcium): rats on 0.02% Ca diet
Experimental: (§1) Male, weanling Sprague-Dawley rats were placed on Diet 11 (0.47% Ca) diet+AEK for one week followed by Diet 11 (0.02% Ca)+AEK for 3 weeks. The rats were then switched to a diet containing 0.47% Ca for one week followed by two weeks on a diet containing 0.02% Ca. Dose administration began during the last week on 0.02% calcium diet. Four consecutive ip doses were given approximately 24 hours apart. Twenty-four hours after the last dose, blood was collected from the severed neck and the concentration of serum calcium determined as a measure of bone calcium mobilization. The first 10 cm of the intestine was also collected for intestinal calcium transport analysis using the everted gut sac method.

[4] = tested on: Human promyelocytic leukemia (HL60) cells; test: HL-60 differentiation (nitro blue tetrazolium reduction); assay type: cell-based; details: FIG. 2; for EC50: HL60 cells, 4 days, NBT reduction
Experimental: The study drugs were dissolved in ethanol and the concentrations determined using UV spectrophotometry. Serial dilutions were prepared so that a range of drug concentrations could be tested without changing the final concentration of ethanol (≦0.2%) present in the cell cultures.
Human promyelocytic leukemia (HL60) cells were grown in RPMI-1640 medium containing 10% fetal bovine serum. The cells were incubated at 37° C. in the presence of 5% CO2.
HL60 cells were plated at 1.2×10^5 cells/ml. Eighteen hours after plating, cells in duplicate were treated with drug. Four days later, the cells were harvested and a nitro blue tetrazolium reduction assay was performed (Collins et al., 1979; J. Exp. Med. 149:969-974). The percentage of differentiated cells was determined by counting a total of 200 cells and recording the number that contained intracellular black-blue formazan deposits. Verification of differentiation to monocytic cells was determined by measuring phagocytic activity (data not shown).

Sprague-Dawley rats [5] = test: Intestinal calcium transport (everted gut sac method) in vitamin D-deficient rats; assay type: in vivo, rat; details: for intestinal calcium transport: everted gut sac
Experimental: as §1

Sprague-Dawley rats [6] = test: PTH suppression (bioactive serum PTH, ELISA); assay type: in vivo, rat
Experimental: Adult, female Sprague-Dawley rats were obtained from Harlan (Madison, Wis.). Upon receipt, the animals were identified by individual tail marks. Animals were housed in suspended, stainless steel, wire-bottom cages. Each cage contained one animal. The animal rooms were maintained at a temperature of 68 to 72° F. and a relative humidity of 25 to 75%. The holding rooms were set to provide 12 hours of light per day. Water and a purified rodent diet (Suda et al., Purified Rodent Diet-Diet 11) containing […] 0.3% phosphorus and fat soluble vitamins A, D, E and K were provided ad libitum. Treatment Groups Animals were randomly assigned to treatment groups (5 animals/group). All doses were administered intraperitoneally in 100 microliters of propylene glycol. Four to seven consecutive doses were given approximately 24 hours apart. Dosing was initiated after the animals had been allowed to acclimate for at least one week. Dose Preparation Control Material Negative Control Material […] The solution was mixed and then stored at 2 to 8° C. The analogs were prepared by first determining the concentration of an ethanol stock solution using UV spectrophotometry (extinction coefficient=42,000; λmax=252 nm). The analog solutions were then volumetrically added to propylene glycol so that there was less than 5% ethanol in the final solution. The solution was mixed and stored at 2 to 8° C. […] Serum PTH Levels. Twenty-four hours after the final dose, blood was collected from the tail artery and the concentration of bioactive serum PTH was measured using the rat BioActive Intact PTH ELISA Kit from Immutopics, Inc. (San Clemente, Calif.). Serum Calcium Analysis Twenty-four hours after the final dose, approximately 1 ml of blood was collected from the tail artery of each experimental animal. The blood was allowed to coagulate at room temperature and then centrifuged at 3000×g for 15 minutes. The serum was transferred to a polypropylene tube and stored frozen at −20° C. The level of calcium was determined by diluting the serum into 0.1% lanthum chloride and measuring the absorbance on an atomic absorption spectrophotometer (Perkin Elmer Model 3110, Shelton, Conn.).

Q: Which results are given for `CC(C)C1CCC2C(=CC=C3CC(O)C(C)C(O)C3)CCCC21C` (stereo not drawn) [2α-methylP, 2α-methyl-19-nor-1α-hydroxy-homopregnacalciferol]?
A: VDR binding compared to 1,25-(OH)2D3 (in words) [1]: bound equally well; Ki ([1]; full-length recombinant rat VDR): 0.94 nM; EC50 [2]: 3.3 nM; bone calcium mobilization (serum calcium) (Sprague-Dawley rats [3]; 87 pmol/day ip, 4 consecutive days): did not result in mobilization of bone calcium; bone calcium mobilization (serum calcium) (Sprague-Dawley rats [3]; 260 pmol/day ip, 4 consecutive days): without any substantial effect; bone calcium mobilization (serum calcium) (Sprague-Dawley rats [3]; 780 pmol/day ip, 4 consecutive days): without any substantial effect; bone calcium mobilization (serum calcium) (Sprague-Dawley rats [3]; 2340 pmol/day ip, 4 consecutive days): without any substantial effect; bone calcium mobilization activity compared to 1,25(OH)2D3 (in words) (Sprague-Dawley rats [3]; overall, FIG. 4): very little bone calcium mobilization activity; HL-60 cell differentiation potency compared to 1,25(OH)2D3 (in words) [4]: almost as potent as 1,25(OH)2D3; EC50 ([4]; Homo sapiens, HL-60, 96 h): 38 nM; intestinal calcium transport (Sprague-Dawley rats [5]; 87 pmol/day ip): does not promote intestinal calcium transport; intestinal calcium transport (Sprague-Dawley rats [5]; 260 pmol/day ip): does not promote intestinal calcium transport; intestinal calcium transport (Sprague-Dawley rats [5]; 780 pmol/day ip): does not promote intestinal calcium transport; intestinal calcium transport (Sprague-Dawley rats [5]; 2340 pmol/day ip): does not promote intestinal calcium transport; intestinal calcium transport activity compared to 1,25(OH)2D3 (in words) (Sprague-Dawley rats [5]; overall, FIG. 5): very little activity; PTH suppression (Sprague-Dawley rats [6]; 500 pmol/day ip, 7 consecutive days): about 20%; PTH suppression (Sprague-Dawley rats [6]; 1500 pmol/day ip, 7 consecutive days): about 20%; PTH suppression (Sprague-Dawley rats [6]; 4500 pmol/day ip, 7 consecutive days): about 60%; PTH suppression compared to 1,25(OH)2D3 (in words) (Sprague-Dawley rats [6]; FIG. 6): not as potently as 1,25(OH)2D3

Q: What does the source list for `C=C1/C(=C\C=C2/CCC[C@]3(C)[C@@H]([C@H](C)CCCC(C)(C)O)CC[C@@H]23)C[C@@H](O)C[C@@H]1O` [1,25(OH)2D3, 1α,25-dihydroxyvitamin D3, reference compound]?
A: EC50 [2]: 0.29 nM; bone calcium mobilization (serum calcium) (Sprague-Dawley rats [3]; all dosages tested): increased serum calcium levels; EC50 [4]: 3.6 nM; intestinal calcium transport (Sprague-Dawley rats [5]; 260 pmol/day ip): promotes a significant increase; PTH suppression (Sprague-Dawley rats [6]; 100 pmol/day ip, 4 consecutive days): 100%
